Here are results for four compounds from patent publication US20060134102A1, “Lymphotoxin beta receptor agents in combination with chemotherapeutic agents” (Biogen Idec MA Inc., priority 2002, published 2006).

Assay [1] deals with WiDr human colorectal adenocarcinoma. The assay is described as follows: WiDr xenograft model: growth of established WiDr human colorectal tumors in athymic nude mice (tumor volume/weight, % T/C, Fa, Combination Index). Conditions: for Volume Decrease: vs control; for Individual Fractional Inhibition of Tumor Volume / Individual Tumor Volumes: individual animals. For orientation: In xenograft studies the graft and the host belong to different species.
Method: Therapeutic agents, i.e. LTβR agonist and chemotherapeutic agents, were administered to athymic nude mice who had been implanted with WiDr tumor cells.
WiDr cells were obtained from the American Type Culture Collection (Manassas, Va.). Cells were grown in vitro in 90% Eagle's Minimum Essential Medium with 2 mM L-glutamine and Earle's Balanced Salt Solution (BSS) adjusted to contain 1.5 g/L sodium bicarbonate, 0.1 mM non-essential amino acids, and 1 mM sodium pyruvate plus 10% fetal bovine serum (FBS) without antibiotics (5% CO2). Bacterial cultures were performed on aliquots of the tumor homogenate preparation that was implanted into the mice to ensure that all cultures were negative for bacterial contamination at both 24 and 48 hours post implant.
When the tumors measured approximately 5 mm in length by 5 mm in width, mice were randomized to treatment and control groups. Body weight measurements were recorded twice-weekly beginning on Day 0.
Tumor measurements were determined using Vernier calipers. Tumor size measurements were recorded regularly according to the study, until the termination of the study. The formula to calculate volume for a prolate ellipsoid was used to estimate tumor volume (mm^3) from 2-dimensional tumor measurements: tumor volume (mm^3)=(length×width^2 [L×W^2])÷2. Assuming unit density, volume was converted to weight (i.e., 1 mm^3=1 mg). Tumor growth inhibition was assessed as % T/C, where T is the mean tumor weight of the treatment group and C is the mean tumor weight of the control group. […] Animals were sacrificed accordingly.
Statistical analysis of the tumor weight measurements was performed according to standard statistical methods. Mean, standard deviation (SD), and standard error of the mean (SEM) were determined for body weight and tumor weight for all dose groups at all assessments.
Antitumor efficacy was determined by comparing each treatment group's tumor volume with the control group's tumor volume. Mean tumor volume decrease was calculated as the difference between the control group and the treatment group mean tumor volume. The fractional inhibition of tumor volume, i.e., the fraction affected (Fa), was calculated by dividing the treatment group mean tumor volume decrease by the control group mean tumor volume. […] Further statistical analysis was performed accordingly.

Assay [2] deals with KM-20L2 human colorectal adenocarcinoma. The assay is described as follows: KM-20L2 xenograft model: growth of established KM-20L2 human colorectal tumors in athymic nude mice (tumor volume/weight, % T/C, Fa, Combination Index). Type of assay: in vivo. Conditions: for Mean Fraction Affected (Fa): Camptosar 3 mg/kg alone; for Fraction affected (Fa): Camptosar 6.0 mg/kg given separately.

“And” between values parts separate entries of the source, which are not always exact repeats. Equal entries are not always repeated.

For `COc1cccc2c1C(=O)c1c(O)c3c(c(O)c1C2=O)C[C@@](O)(C(=O)CO)C[C@@H]3O[C@H]1C[C@H](N)[C@H](O)[C@H](C)O1` [Adriamycin, adriamycin, reference compound], in assay [1] (Adriamycin 4 mg/kg, day 35), the “Fa (fractional inhibition of tumor volume), group mean” value is recorded as −0.204; the “Fa, individual animals” value is 0.033 and −0.408 and −1.391 and 0.530 and −0.660 and −0.137 and −0.379 and −0.389 and 0.251 and 0.512; the “Tumor Volume, group mean” value is recorded as 1353.0; the “Tumor volume, individual animals” value is 1582.5 and 2687.5 and 528.1 and 1865.5 and 1277.8 and 1550.2 and 1560.9 and 842.1 and 548.3. For the same compound, in assay [1] (Adriamycin 4 mg/kg, day 35), the “Volume Decrease vs control, group mean” value was −229.0. Also, in assay [1] (Adriamycin 6 mg/kg, day 35), the “Fa (fractional inhibition of tumor volume), group mean” value came out at 0.089; the “Fa, individual animals” value was −0.295 and 0.095 and 0.380 and 0.462 and 0.198 and 0.209 and 0.057 and −0.060 and 0.522 and −0.674; the “Tumor Volume, group mean” value is listed as 1023.5; the “Tumor volume, individual animals” value was 1455.4 and 696.6 and 605.1 and 901.8 and 889.3 and 1191.2 and 537.2 and 1881.7. Besides, the “Volume Decrease vs control, group mean” value in assay [1] (Adriamycin 6 mg/kg, day 35) is on record as 100.5. For the same compound, the “Activity by NCI criteria (% T/C at or below 42)” value in assay [1] (adriamycin 1 mg/kg to 6 mg/kg intraperitoneal, all tested doses) was “inactive”. Moreover, the “Inhibition of tumor growth” value in assay [1] (adriamycin 6 mg/kg or 4 mg/kg, day 35, separate study) was “did not produce a significant inhibition”. For the same compound, the “Tumor growth vs vehicle control” value in assay [1] (adriamycin groups, day 42 (end of study)) was “no significant difference”.

Take `CCc1c2c(nc3ccc(OC(=O)N4CCC(N5CCCCC5)CC4)cc13)-c1cc3c(c(=O)n1C2)COC(=O)[C@]3(O)CC` [Camptosar, irinotecan, reference compound]: the “Activity by NCI criteria (% T/C at or below 42)” value in assay [2] (Camptosar) was “active”. The “Mean Fraction Affected (Fa)” value in assay [2] (Day 9) stood at 0.098; in assay [2] (Day 13), 0.327; in assay [2] (Day 20), 0.593; in assay [2] (Day 23), 0.521; in assay [2] (Day 30), 0.406. Further, the “Inhibition of tumor growth vs saline control” value in assay [2] (Camptosar 6 mg/kg days 13 through 51, 3 mg/kg days 13 through 48, […] days 9 through 44, separate study) is recorded as “statistically significant inhibition of tumor growth”. Also, the “Fraction affected (Fa)” value in assay [2] (Day 16) is reported as 0.594; in assay [2] (Day 20), 0.781; in assay [2] (Day 23) it was 0.759; in assay [2] (Day 27), 0.701; in assay [2] (Day 30) it was 0.607; in assay [2] (Day 34), 0.564. For the same compound, in assay [2] (Day 37), the “Fraction affected (Fa)” value turned out to be 0.495. The Tumor inhibition result in assay [2] (Camptosar groups, end of day 55, separate study) is reported as “no significant tumor inhibition”. The “Median Effect Dose” value in assay [2] (Combined (1:0.63 huCBE11:Camptosar), dose of the labelled agent in the combination, Day 13) is 6.7 mg/kg; in assay [2] (Combined (1:0.63 huCBE11:Camptosar), dose of the labelled agent in the combination, Day 16), 1.6 mg/kg; in assay [2] (Combined (1:0.63 huCBE11:Camptosar), dose of the labelled agent in the combination, Day 20), 0.6 mg/kg; in assay [2] (Combined (1:0.63 huCBE11:Camptosar), dose of the labelled agent in the combination, Day 23), 0.7 mg/kg; in assay [2] (Combined (1:0.63 huCBE11:Camptosar), dose of the labelled agent in the combination, Day 27), 1.0 mg/kg; in assay [2] (Combined (1:0.63 huCBE11:Camptosar), dose of the labelled agent in the combination, Day 30), 1.1 mg/kg. The “Median Effect Dose” value in assay [2] (Combined (1:0.63 huCBE11:Camptosar), dose of the labelled agent in the combination, Day 34) was determined as 1.1 mg/kg; in assay [2] (Combined (1:0.63 huCBE11:Camptosar), dose of the labelled agent in the combination, Day 37) it was 1.0 mg/kg; in assay [2] (Combined (1:0.63 huCBE11:Camptosar), dose of the labelled agent in the combination, Day 41), 1.0 mg/kg; in assay [2] (Given Separately, Day 13), 12.4 mg/kg; in assay [2] (Given Separately, Day 16), 4.0 mg/kg; in assay [2] (Given Separately, Day 20), 2.3 mg/kg. The “Median Effect Dose” value in assay [2] (Given Separately, Day 23) is reported as 2.7 mg/kg; in assay [2] (Given Separately, Day 27), 3.2 mg/kg; in assay [2] (Given Separately, Day 30), 4.2 mg/kg; in assay [2] (Given Separately, Day 34), 4.7 mg/kg; in assay [2] (Given Separately, Day 37), 6.0 mg/kg; in assay [2] (Given Separately, Day 41), 7.3 mg/kg. In addition, the “Median Effect Dose” value in assay [1] (Camptosar combined with huCBE11 (0.555:1), day 21) amounted to 5.7 mg/kg; in assay [1] (Camptosar given separately, day 21) it was 9.8 mg/kg. Besides, the “Fa (Fraction Affected), group mean” value in assay [1] (Camptosar 3 mg/kg, day 21) was 0.238; in assay [1] (Camptosar 6 mg/kg, day 21) it was 0.441; in assay [1] (Camptosar 10 mg/kg, day 21) it was 0.476. For the same compound, the “Fa, individual animals” value is 0.336 and 0.314 and 0.078 and 0.269 and 0.245 and −0.068 and 0.513 and 0.208 and 0.093 in assay [1] (Camptosar 3 mg/kg, day 21); 0.302 and 0.473 and 0.521 and 0.544 (2×) and 0.590 and 0.110 and 0.614 and 0.277 in assay [1] (Camptosar 6 mg/kg, day 21); 0.464 and 0.347 and 0.575 and 0.375 and 0.573 and 0.163 and 0.516 and 0.684 and 0.648 in assay [1] (Camptosar 10 mg/kg, day 21). In assay [1] (Camptosar […] to 10 mg/kg), the “Activity by NCI criteria (% T/C of 42 or less)” value is “inactive”.

Take `N.N.[Cl][Pt][Cl]` [Cisplatin, cisplatin, reference compound]: in assay [1] (Cisplatin 1 mg/kg, day 44), the “Fa (fractional inhibition of tumor volume), group mean” value is recorded as 0.083; the “Fa, individual animals” value is −0.478 and 0.344 and 0.025 and −0.016 and 0.140 and 0.102 and 0.222 and 0.128 and 0.098 and 0.268; the “Tumor Volume, group mean” value is listed as 1300.4; the “Tumor volume, individual animals” value was 2096.4 and 930.1 and 1383.3 and 1440.7 and 1220.3 and 1274.3 and 1103.9 and 1236.7 and 1280.0 and 1038.3. Besides, the “Volume Decrease vs control, group mean” value in assay [1] (Cisplatin 1 mg/kg, day 44) is on record as 118.2. In assay [1] (Cisplatin 2 mg/kg, day 44), the “Fa (fractional inhibition of tumor volume), group mean” value is given as 0.055; the “Fa, individual animals” value is 0.082 and −0.061 and −0.036 and 0.618 and −0.290 and −0.523 and 0.241 and 0.054 and 0.316 and 0.151; the “Tumor Volume, group mean” value was 1340.1; the “Tumor volume, individual animals” value was 1301.9 and 1505.3 and 1469.5 and 541.4 and 1829.8 and 2160.2 and 1076.4 and 1342.0 and 970.2 and 1204.2. In assay [1] (Cisplatin 2 mg/kg, day 44), the “Volume Decrease vs control, group mean” value worked out at 78.5. Besides, in assay [1] (cisplatin 2 mg/kg to 0.25 mg/kg), the “Activity by NCI criteria (% T/C of 42 or less)” value is “inactive”. Also, the “Tumor growth vs saline control” value in assay [1] (cisplatin 2 mg/kg, 1 mg/kg and 0.25 mg/kg, day 50) is “did not differ significantly”.

As to `CC(=O)O[C@H]1C(=O)[C@@]2(C)[C@H]([C@H](OC(=O)c3ccccc3)[C@]3(O)C[C@H](OC(=O)[C@H](O)[C@@H](NC(=O)c4ccccc4)c4ccccc4)C(C)=C1C3(C)C)[C@]1(OC(C)=O)CO[C@@H]1C[C@@H]2O` [Taxol, reference compound], the “Fa (Fraction Affected)” value in assay [1] (Day 34, Taxol 12.5 mg/kg) is listed as 0.171; in assay [1] (Day 34, Taxol 18.75 mg/kg), 0.588; in assay [1] (Day 34, Taxol 25 mg/kg), 0.812. Further, the “Tumor Volume” value in assay [1] (Day 34, Taxol 12.5 mg/kg) amounted to 1141.1; in assay [1] (Day 34, Taxol 18.75 mg/kg), 567.5; in assay [1] (Day 34, Taxol 25 mg/kg), 259.1. Also, the “Volume Decrease” value in assay [1] (Day 34, Taxol 18.75 mg/kg) was determined as 808.9; in assay [1] (Day 34, Taxol 25 mg/kg), 1117.3. Moreover, the “Median Effect Dose” value in assay [1] (Day 34, Taxol Given Separately) amounted to 12.6 mg/kg; in assay [1] (Day 34, Taxol dose, Combined (0.333:1) with huCBE11), 6.6 mg/kg. The “Individual Fractional Inhibition of Tumor Volume” value in assay [1] (Day 34, Taxol 6.25) is 0.231 and −0.036 and 0.421 and 0.375 and 0.469 and 0.157 and 0.552 and 0.284 and −0.217 and 0.168; in assay [1] (Day 34, Taxol 12.5), 0.854 and 0.191 and 0.140 and 0.037 and −0.278 and 0.170 and 0.192 and −0.130 and 0.198 and 0.336. In addition, the “Individual Tumor Volumes” value in assay [1] (Day 34, Taxol 6.25) is 1058.1 and 1425.5 and 796.7 and 860.4 and 730.5 and 1159.9 and 616.0 and 985.1 and 1675.4 and 1144.5; in assay [1] (Day 34, Taxol 12.5), 201.1 and 1113.1 and 1183.1 and 1325.2 and 1759.5 and 1143.0 and 1112.7 and 1554.9 and 1104.0 and 914.1. The “Tumor growth vs vehicle control” value in assay [1] (Taxol 12.5 mg/kg, […] and 3.13 mg/kg) is “did not differ significantly”. Moreover, the “% T/C” value is reported as “below 42%” in assay [1] (Taxol 18.75 mg/kg, Days 21 to 34); “below 42%” in assay [1] (Taxol 25 mg/kg, Days 13 to 39); “below 42%” in assay [1] (Taxol 25 mg/kg, Days 21 to 50); over 82% in assay [1] (Taxol 12.5, 6.25 and 3.13 mg/kg, throughout the study).
